According to paper PMC7174022 (Dalton transactions (Cambridge, England : 2003), 2020):

Columns and labels:
[1] = tested on: the cell lines investigated
[2] = tested on: DU-145 cells; type: cell-based, human
[3] = tested on: HFF-1 cells (normal human foreskin fibroblast); type: cell-based; conditions: read-out: IC50 HFF-1
[4] = tested on: MCF-7 cells (breast adenocarcinoma); type: cell-based, human; conditions: read-out: IC50 MCF-7
[5] = tested on: DU-145 cells (metastatic prostate carcinoma); type: cell-based, human; conditions: read-out: IC50 DU-145
[6] = tested on: Hep G2 cells (human hepatocellular carcinoma); type: cell-based; conditions: read-out: IC50 Hep G2
[7] = tested on: PANC-1 cells (human pancreatic carcinoma); type: cell-based; conditions: read-out: IC50 PANC-1
[8] = tested on: MIA PaCa 2 cells (human pancreatic carcinoma); type: cell-based; conditions: read-out: IC50 MIA PaCa 2
[9] = tested on: microtubule network in MCF-7 cells; type: cell-based, human

In the case of `OCCN(CCO)Cc1ccccn1` [Complex L1, bis(2-hydroxyethyl)pyridylmethylamine], the “cytotoxicity of the ligands (in words)” value [1] is reported as “did not exhibit any cytotoxicity”.
For `O=C1[O][Pt]2([NH][C@@H]3CCCC[C@H]3[NH]2)[O]C1=O` [Oxaliplatin], the “increase in cell killing efficiency in presence of verapamil” value [2] was 8 times, the IC50 [3] was 7 ± 0.6 µM and the IC50 [4] was 0.6 ± 0.1 µM. For the same compound, the IC50 [5] was 4.5 ± 0.3 µM, the IC50 [6] was 9.8 ± 0.3 µM and the IC50 [7] was 3.1 ± 0.2 µM. For the same compound, the IC50 [8] was 5.7 ± 0.2 µM.
`COc1cc2c(c(OC)c1OC)-c1ccc(OC)c(=O)cc1[C@@H](NC(C)=O)CC2` [colchicine, Colchicine] was tested, and the “organization of microtubule network (positive control)” value [9] was “disruption of microtubule network”.
